Laboratory results as given in patent US20250000858A1, “FGFR TYROSINE KINASE INHIBITORS FOR THE TREATMENT OF ADVANCED SOLID TUMORS” (JANSSEN PHARMACEUTICA NV, priority 2021, published 2025).
Read-outs that look alike come from different tables or passages of the source.

[1] = 144 treated BPC subjects (safety analysis set)
[2] = Broad Panel Cohort, 178 treated subjects, % of subjects, AE outcome of Fatal

Description: The following results include data from an efficacy analysis set and a safety analysis set. […] All subjects in the efficacy analysis set were treated and followed until the clinical cut-off date in accordance with the protocol, in order to provide adequate follow-up of at least 5 months of objective evidence of clinical activity on all subjects.

## COc1cc(OC)cc(N(CCNC(C)C)c2ccc3ncc(-c4cnn(C)c4)nc3c2)c1 [erdafitinib, N-(3,5-dimethoxy-phenyl)-N′-(1-methylethyl)-N-[3-(1-methyl-1H-pyrazol-4-yl)quinoxalin-6-yl]ethane-1,2-diamine]
13 patients, BPC n=178, IA3
  TEAEs leading to death: 7.3%
[1]
  Drug-related serious TEAEs: 6.3%
  diarrhea (TEAE): 54.2%
  drug related TEAEs leading to death: no drug related TEAEs leading to death
  drug-related TEAEs leading to discontinuation: 3.5%
  hyperphosphatemia (TEAE): 65.3%
  stomatitis (TEAE): 49.3%
[2]
  TEAEs leading to death: 13 (7.3%)
  TEAEs leading to death: Drug-related: 1 (0.6%)
